Measured values as given in patent US9169254B2, “Spiroimidazolone derivative” (Chugai Seiyaku Kabushiki Kaisha, priority 2009, dated 2015).
Structures can show the parent of a compound that is named as a salt.

Biological target: T1, human PTH1 receptor (Homo sapiens, UniProt Q03431)
T1 sequence (Q03431 27-593): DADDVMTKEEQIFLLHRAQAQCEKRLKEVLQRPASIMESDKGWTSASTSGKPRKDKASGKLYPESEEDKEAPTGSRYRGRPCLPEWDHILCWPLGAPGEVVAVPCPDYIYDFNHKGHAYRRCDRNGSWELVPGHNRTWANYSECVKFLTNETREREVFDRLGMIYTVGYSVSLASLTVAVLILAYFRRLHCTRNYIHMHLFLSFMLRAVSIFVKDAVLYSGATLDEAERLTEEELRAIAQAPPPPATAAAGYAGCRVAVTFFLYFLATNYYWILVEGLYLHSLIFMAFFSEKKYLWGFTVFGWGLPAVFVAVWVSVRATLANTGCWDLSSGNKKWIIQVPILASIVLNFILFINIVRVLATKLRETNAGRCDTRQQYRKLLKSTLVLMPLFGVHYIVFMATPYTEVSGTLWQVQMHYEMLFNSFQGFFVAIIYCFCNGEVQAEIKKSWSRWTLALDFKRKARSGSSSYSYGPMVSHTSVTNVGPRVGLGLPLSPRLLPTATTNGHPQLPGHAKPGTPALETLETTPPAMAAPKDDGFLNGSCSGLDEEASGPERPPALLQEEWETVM
Experiment: In vitro cAMP signal activity in HKRK-B7 cells (LLC-PK1 cells overexpressing the human PTH1 receptor)
Format: cell-based
Settings: HKRK-B7 cells, compound at 1×10^−3 M

[1] = cAMP produced as percentage of that produced by hPTH(1-34) at 100 nM

| cAMP production activity (%) [1] [%] | SMILES | cAMP production activity (%) ([…], 0.1 µM) |
| --- | --- | --- |
| 89 | Cc1cc(C(=O)N2CCN(C(=O)CO)CC2)cc(C)c1/C=C/S(=O)(=O)N1CCC2(CC1)N=C(c1cccc(OC(F)(F)F)c1)NC2=O [Compound 447, 8-((E)-2-{4-[4-(2-Hydroxy-acetyl)-piperazine-1-carbonyl]-2,6-dimethyl-phenyl}-ethenesulfonyl)-2-(3-trifluoromethoxy-phenyl)-1,3,8-triaza-spiro[4.5]dec-1-en-4-one] |  |
| 64 | COC(=O)CCC(=O)N1CCN(C(=O)c2cc(C)c(/C=C/S(=O)(=O)N3CCC4(CC3)N=C(c3cccc(OC(F)(F)F)c3)NC4=O)c(C)c2)CC1 [Compound 448, 4-[4-(3,5-dimethyl-4-{(E)-2-[4-oxo-2-(3-trifluoromethoxy-phenyl)-1,3,8-triaza-spiro[4.5]dec-1-ene-8-sulfonyl]-vinyl}-benzoyl)-piperazin-1-yl]-4-oxo-butyric acid methyl ester] |  |
| 94 | Cc1cc(C(=O)N2CCN(C(=O)CCCN(C)C)CC2)cc(C)c1/C=C/S(=O)(=O)N1CCC2(CC1)N=C(c1cccc(OC(F)(F)F)c1)NC2=O [Compound 449, 8-((E)-2-{4-[4-(4-dimethylamino-butyryl)-piperazine-1-carbonyl]-2,6-dimethyl-phenyl}-ethenesulfonyl)-2-(3-trifluoromethoxy-phenyl)-1,3,8-triaza-spiro[4.5]dec-1-en-4-one] |  |
| 56 | COCC(=O)N(C)c1ccc(/C=C/S(=O)(=O)N2CCC3(CC2)N=C(c2cccc(OC(F)(F)F)c2)NC3=O)c(C)c1 [Compound 450, 2-Methoxy-N-methyl-N-(3-methyl-4-{(E)-2-[4-oxo-2-(3-trifluoromethoxy-phenyl)-1,3,8-triaza-spiro[4.5]dec-1-ene-8-sulfonyl]-vinyl}-phenyl)-acetamide] |  |
| 96 | Cc1cc(N(C)C(=O)CO)ccc1/C=C/S(=O)(=O)N1CCC2(CC1)N=C(c1cccc(OC(F)(F)F)c1)NC2=O [Compound 451, 2-Hydroxy-N-methyl-N-(3-methyl-4-{(E)-2-[4-oxo-2-(3-trifluoromethoxy-phenyl)-1,3,8-triaza-spiro[4.5]dec-1-ene-8-sulfonyl]-vinyl}-phenyl)-acetamide] |  |
| 58 | Cc1cc(C(=O)N(C)CC(=O)O)cc(C)c1/C=C/S(=O)(=O)N1CCC2(CC1)N=C(c1cccc(C(F)(F)F)c1)NC2=O [Compound 452, [(3,5-Dimethyl-4-{(E)-2-[4-oxo-2-(3-trifluoromethyl-phenyl)-1,3,8-triaza-spiro[4.5]dec-1-ene-8-sulfonyl]-vinyl}-benzoyl)-methyl-amino]-acetic acid] |  |
| 19 | CC(C)(C)NC(=O)N1CCCC(C2=NC3(CCN(S(=O)(=O)c4cccc(Cl)c4)CC3)C(=O)N2)C1 (stereo not drawn) [Compound 454, 3-[8-(3-Chloro-benzenesulfonyl)-4-oxo-1,3,8-triaza-spiro[4.5]dec-1-en-2-yl]-piperidine-1-carboxylic acid tert-butylamide] |  |
| 77 | Cc1cc(N(C)C(N)=O)ccc1/C=C/S(=O)(=O)N1CCC2(CC1)N=C(c1cccc(OC(F)(F)F)c1)NC2=O [Compound 458, 1-methyl-1-(3-methyl-4-{(E)-2-[4-oxo-2-(3-trifluoromethoxy-phenyl)-1,3,8-triaza-spiro[4.5]dec-1-ene-8-sulfonyl]-vinyl}-phenyl)-urea] |  |
| 51 | O=C(OCc1ccccc1)N1CCCC(C2=NC3(CCN(S(=O)(=O)c4cccc(Cl)c4)CC3)C(=O)N2)C1 (stereo not drawn) [Compound 461, 3-[8-(3-chloro-benzenesulfonyl)-4-oxo-1,3,8-triaza-spiro[4.5]dec-1-en-2-yl]-piperidine-1-carboxylic acid benzyl ester] |  |
| 66 | CC(C)(C)COC(=O)N1CCCC(C2=NC3(CCN(S(=O)(=O)CCc4cccc5ccccc45)CC3)C(=O)N2)C1 (stereo not drawn) [Compound 465, 3-[8-(2-naphthalen-1-yl-ethanesulfonyl)-4-oxo-1,3,8-triaza-spiro[4.5]dec-1-en-2-yl]-piperidine-1-carboxylic acid 2,2-dimethyl-propyl ester] |  |
| 60 | COC(=O)N(C)c1ccc(/C=C/S(=O)(=O)N2CCC3(CC2)N=C(c2cccc(OC(F)(F)F)c2)NC3=O)c(C)c1 [Compound 467, methyl-(3-methyl-4-{(E)-2-[4-oxo-2-(3-trifluoromethoxy-phenyl)-1,3,8-triaza-spiro[4.5]dec-1-ene-8-sulfonyl]-vinyl}-phenyl)-carbamic acid methyl ester] |  |

Second part, the compound before the results:

| SMILES | cAMP production activity (%) [1] [%] | cAMP production activity (%) ([…], 0.1 µM) |
| --- | --- | --- |
| Cc1cc(C(=O)N2CCNCC2)cc(C)c1/C=C/S(=O)(=O)N1CCC2(CC1)N=C(c1cccc(OC(F)(F)F)c1)NC2=O [Compound 446, 8-{(E)-2-[2,6-dimethyl-4-(piperazine-1-carbonyl)-phenyl]-ethenesulfonyl}-2-(3-trifluoromethoxy-phenyl)-1,3,8-triaza-spiro[4.5]dec-1-en-4-one hydrochloride] |  | 49 |
| CC(C)(C)CCN1CCCC(C2=NC3(CCN(S(=O)(=O)c4cccc(Cl)c4)CC3)C(=O)N2)C1 (stereo not drawn) [Compound 453, 8-(3-Chloro-benzenesulfonyl)-2-[1-(3,3-dimethyl-butyl)-piperidin-3-yl]-1,3,8-triaza-spiro[4.5]dec-1-en-4-one] | 16 |  |
| O=C(NCCc1ccccc1)N1CCCC(C2=NC3(CCN(S(=O)(=O)CCc4cccc5ccccc45)CC3)C(=O)N2)C1 (stereo not drawn) [Compound 455, 3-[8-(2-naphthalen-1-yl-ethanesulfonyl)-4-oxo-1,3,8-triaza-spiro[4.5]dec-1-en-2-yl]-piperidine-1-carboxylic acid phenethyl-amide] | 31 |  |
| O=C(N1CCCCC1)N1CCCC(C2=NC3(CCN(S(=O)(=O)c4cccc(Cl)c4)CC3)C(=O)N2)C1 (stereo not drawn) [Compound 456, 8-(3-Chloro-benzenesulfonyl)-2-[1-(piperidine-1-carbonyl)-piperidin-3-yl]-1,3,8-triaza-spiro[4.5]dec-1-en-4-one] | 28 |  |
| Cc1cc(N(C)C(=O)NCCN(C)C)ccc1/C=C/S(=O)(=O)N1CCC2(CC1)N=C(c1cccc(OC(F)(F)F)c1)NC2=O [Compound 457, 3-(2-Dimethylamino-ethyl)-1-methyl-1-(3-methyl-4-{(E)-2-[4-oxo-2-(3-trifluoromethoxy-phenyl)-1,3,8-triaza-spiro[4.5]dec-1-ene-8-sulfonyl]-vinyl}-phenyl)-urea] |  | 25 |
| CNC(=O)Nc1cccc(CCS(=O)(=O)N2CCC3(CC2)N=C(C2CCCCC2)NC3=O)c1C [Compound 459, 1-{3-[2-(2-Cyclohexyl-4-oxo-1,3,8-triaza-spiro[4.5]dec-1-ene-8-sulfonyl)-ethyl]-2-methyl-phenyl}-3-methyl-urea] |  | 55 |
| COCCOC(=O)N1CCCC(C2=NC3(CCN(S(=O)(=O)c4cccc(Cl)c4)CC3)C(=O)N2)C1 (stereo not drawn) [Compound 460, 3-[8-(3-Chloro-benzenesulfonyl)-4-oxo-1,3,8-triaza-spiro[4.5]dec-1-en-2-yl]-piperidine-1-carboxylic acid 2-methoxy-ethyl ester] |  | 18 |
| CC(C)COC(=O)N1CCCC(C2=NC3(CCN(S(=O)(=O)c4cccc(Cl)c4)CC3)C(=O)N2)C1 (stereo not drawn) [Compound 462, 3-[8-(3-chloro-benzenesulfonyl)-4-oxo-1,3,8-triaza-spiro[4.5]dec-1-en-2-yl]-piperidine-1-carboxylic acid isobutyl ester] | 47 |  |
| COC(=O)N1CCCC(C2=NC3(CCN(S(=O)(=O)c4cccc(Cl)c4)CC3)C(=O)N2)C1 (stereo not drawn) [Compound 463, 3-[8-(3-chloro-benzenesulfonyl)-4-oxo-1,3,8-triaza-spiro[4.5]dec-1-en-2-yl]-piperidine-1-carboxylic acid methyl ester] | 28 |  |
| O=C(OCc1ccccc1)N1CCCC(C2=NC3(CCN(S(=O)(=O)CCc4cccc5ccccc45)CC3)C(=O)N2)C1 (stereo not drawn) [Compound 464, 3-[8-(2-naphthalen-1-yl-ethanesulfonyl)-4-oxo-1,3,8-triaza-spiro[4.5]dec-1-en-2-yl]-piperidine-1-carboxylic acid benzyl ester] | 54 |  |
| Cc1cc(N(C)C(=O)OCCN(C)C)ccc1/C=C/S(=O)(=O)N1CCC2(CC1)N=C(c1cccc(OC(F)(F)F)c1)NC2=O [Compound 466, Methyl-(3-methyl-4-{(E)-2-[4-oxo-2-(3-trifluoromethoxy-phenyl)-1,3,8-triaza-spiro[4.5]dec-1-ene-8-sulfonyl]-vinyl}-phenyl)-carbamic acid 2-dimethylamino-ethyl ester] |  | 23 |
| COC(=O)N(C)c1ccc(CCS(=O)(=O)N2CCC3(CC2)N=C(c2cccc(OC(F)(F)F)c2)NC3=O)c(C)c1 [Compound 468, Methyl-(3-methyl-4-{2-[4-oxo-2-(3-trifluoromethoxy-phenyl)-1,3,8-triaza-spiro[4.5]dec-1-ene-8-sulfonyl]-ethyl}-phenyl)-carbamic acid methyl ester] |  | 90 |
| Cc1ccccc1CCS(=O)(=O)N1CCC2(CC1)N=C(C1CCCCC1)NC2=S [Compound 469, 2-Cyclohexyl-8-(2-o-tolyl-ethanesulfonyl)-1,3,8-triaza-spiro[4.5]dec-1-ene-4-thione] | 47 |  |
